# Data as given in patent publication US8163929B2, “Dihydropyridone amides as P2X7 modulators” (Roche Palo Alto LLC, priority 2008, dated 2012).
# Target: T1, P2X7 (UniProt Q99572)
# T1 sequence (Q99572 1-595): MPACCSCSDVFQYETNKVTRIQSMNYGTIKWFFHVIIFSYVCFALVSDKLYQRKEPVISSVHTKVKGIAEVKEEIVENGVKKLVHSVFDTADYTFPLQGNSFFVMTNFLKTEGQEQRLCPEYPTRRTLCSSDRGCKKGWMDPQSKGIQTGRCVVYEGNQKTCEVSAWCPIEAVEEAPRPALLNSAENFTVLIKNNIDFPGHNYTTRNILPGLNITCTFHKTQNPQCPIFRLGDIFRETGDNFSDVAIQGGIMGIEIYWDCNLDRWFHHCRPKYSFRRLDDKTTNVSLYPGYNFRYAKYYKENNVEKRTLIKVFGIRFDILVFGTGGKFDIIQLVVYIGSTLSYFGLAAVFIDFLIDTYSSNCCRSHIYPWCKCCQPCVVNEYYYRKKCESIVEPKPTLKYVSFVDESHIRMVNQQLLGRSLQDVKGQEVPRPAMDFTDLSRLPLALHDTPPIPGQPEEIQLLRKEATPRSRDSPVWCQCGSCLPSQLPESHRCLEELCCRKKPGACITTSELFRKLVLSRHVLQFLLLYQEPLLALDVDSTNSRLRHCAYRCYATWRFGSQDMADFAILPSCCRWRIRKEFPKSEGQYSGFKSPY
# Experiment: P2X7 activity of Table 1
# Type: cell-based
# Details: pIC50 values for P2X7
# How it was run: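 FLIPR calcium flux with fluo-3 in 1321N1 cells expressing human P2X7 and HEK293 cells expressing rat P2X7, in HBSS with 2 mM CaCl2 and 2.5 mM probenecid. Antagonist pre-incubated 20 min at room temperature, then BzATP added (100 μM human, 5 μM rat). Peak response over 5 min normalised to 5 μM ionomycin.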
row,pIC50,SMILES
1,7.685,"Cc1ccc(-c2cc(C)n(CC(=O)NCCN(C)C)n2)cc1NC(=O)C1=CNC(=O)C[C@H]1c1ccc(F)cc1 [Compound 119, (S)-4-(4-Fluoro-phenyl)-6-oxo-1,4,5,6-tetrahydro-pyridine-3-carboxylic acid (5-{1-[(2-dimethylamino-ethylcarbamoyl)-methyl]-5-methyl-1H-pyrazol-3-yl}-2-methyl-phenyl)-amide]"
2,7.855,"Cc1ccc(-c2cccn(C)c2=O)cc1NC(=O)C1=CN(C)C(=O)C[C@H]1c1ccc(F)cc1 [Compound 120, (S)-4-(4-Fluoro-phenyl)-1-methyl-6-oxo-1,4,5,6-tetrahydro-pyridine-3-carboxylic acid [2-methyl-5-(1-methyl-2-oxo-1,2-dihydro-pyridin-3-yl)-phenyl]-amide]"
3,7.385,"Cc1ccc(-c2ccc(=O)n(CCO)n2)cc1NC(=O)C1=CNC(=O)C[C@H]1c1ccc(F)cc1 [Compound 121, (S)-4-(4-Fluoro-phenyl)-6-oxo-1,4,5,6-tetrahydro-pyridine-3-carboxylic acid {5-[1-(2-hydroxy-ethyl)-6-oxo-1,6-dihydro-pyridazin-3-yl]-2-methyl-phenyl}-amide]"
4,8.26,"Cc1ccc(=O)n(-c2ccc(C)c(NC(=O)C3=CNC(=O)C[C@H]3c3ccc(F)cc3)c2)c1 [Compound 122, (S)-4-(4-Fluoro-phenyl)-6-oxo-1,4,5,6-tetrahydro-pyridine-3-carboxylic acid [2-methyl-5-(5-methyl-2-oxo-2H-pyridin-1-yl)-phenyl]-amide]"
5,7.58,"CN1C=C(C(=O)Nc2cc(-c3ccn[nH]c3=O)ccc2F)[C@H](c2ccc(F)cc2)CC1=O [Compound 123, (S)-4-(4-Fluoro-phenyl)-1-methyl-6-oxo-1,4,5,6-tetrahydro-pyridine-3-carboxylic acid [2-fluoro-5-(3-oxo-2,3-dihydro-pyridazin-4-yl)-phenyl]-amide]"
6,6.44,"Cc1ccc(-n2ccc(=O)[nH]c2=O)cc1NC(=O)C1=CN(C)C(=O)C[C@H]1c1ccc(F)cc1 [Compound 124, (S)-4-(4-Fluoro-phenyl)-1-methyl-6-oxo-1,4,5,6-tetrahydro-pyridine-3-carboxylic acid [5-(2,4-dioxo-3,4-dihydro-2H-pyrimidin-1-yl)-2-methyl-phenyl]-amide]"
7,7.606,"Cc1cc(Cl)c(-n2ncccc2=O)cc1NC(=O)C1=CNC(=O)C[C@H]1c1ccc(F)cc1 [Compound 125, (S)-4-(4-Fluoro-phenyl)-6-oxo-1,4,5,6-tetrahydro-pyridine-3-carboxylic acid [4-chloro-2-methyl-5-(6-oxo-6H-pyridazin-1-yl)-phenyl]-amide]"
8,7.615,"COC[C@H](O)Cn1nc(-c2ccc(C)c(NC(=O)C3=CN(C)C(=O)C[C@H]3c3ccc(F)cc3)c2)ccc1=O [Compound 126, (S)-4-(4-Fluoro-phenyl)-1-methyl-6-oxo-1,4,5,6-tetrahydro-pyridine-3-carboxylic acid {5-[1-((R)-2-hydroxy-3-methoxy-propyl)-6-oxo-1,6-dihydro-pyridazin-3-yl]-2-methyl-phenyl}-amide]"
9,7.843,"Cc1cc(Cl)c(-c2ccnn(C)c2=O)cc1NC(=O)C1=CNC(=O)C[C@H]1c1ccc(F)cc1 [Compound 127, (S)-4-(4-Fluoro-phenyl)-6-oxo-1,4,5,6-tetrahydro-pyridine-3-carboxylic acid [4-chloro-2-methyl-5-(2-methyl-3-oxo-2,3-dihydro-pyridazin-4-yl)-phenyl]-amide]"
10,7.195,"Cc1ccc(-c2ccnn(C)c2=O)cc1NC(=O)C1=CN(CC(=O)N(C)C)C(=O)C[C@H]1c1ccc(F)cc1 [Compound 128, (S)-1-Dimethylcarbamoylmethyl-4-(4-fluoro-phenyl)-6-oxo-1,4,5,6-tetrahydro-pyridine-3-carboxylic acid [2-methyl-5-(2-methyl-3-oxo-2,3-dihydro-pyridazin-4-yl)-phenyl]-amide]"
11,7.945,"Cc1ccc(-n2cc(C)c(=O)[nH]c2=O)cc1NC(=O)C1=CN(C)C(=O)C[C@H]1c1ccc(F)cc1 [Compound 129, (S)-4-(4-Fluoro-phenyl)-1-methyl-6-oxo-1,4,5,6-tetrahydro-pyridine-3-carboxylic acid [2-methyl-5-(5-methyl-2,4-dioxo-3,4-dihydro-2H-pyrimidin-1-yl)-phenyl]-amide]"
12,7.864,"Cc1cc(F)c(-c2ccnn(C)c2=O)cc1NC(=O)C1=CN(C)C(=O)C[C@H]1c1ccc(F)cc1 [Compound 130, (S)-4-(4-Fluoro-phenyl)-1-methyl-6-oxo-1,4,5,6-tetrahydro-pyridine-3-carboxylic acid [4-fluoro-2-methyl-5-(2-methyl-3-oxo-2,3-dihydro-pyridazin-4-yl)-phenyl]-amide]"
13,7.42,"CCn1c(=O)cnn(-c2ccc(C)c(NC(=O)C3=CN(C)C(=O)C[C@H]3c3ccc(F)cc3)c2)c1=O [Compound 131, (S)-4-(4-Fluoro-phenyl)-1-methyl-6-oxo-1,4,5,6-tetrahydro-pyridine-3-carboxylic acid [5-(4-ethyl-3,5-dioxo-4,5-dihydro-3H-[1,2,4]triazin-2-yl)-2-methyl-phenyl]-amide]"
14,6.015,"Cc1ccc(-n2ccc(=O)n(C)c2=O)cc1NC(=O)C1=CN(C)C(=O)C[C@H]1c1ccc(F)cc1 [Compound 132, (S)-4-(4-Fluoro-phenyl)-1-methyl-6-oxo-1,4,5,6-tetrahydro-pyridine-3-carboxylic acid [2-methyl-5-(3-methyl-2,4-dioxo-3,4-dihydro-2H-pyrimidin-1-yl)-phenyl]-amide]"
15,7.24,"Cc1ccc(-n2ccc(=O)n(C)c2=O)cc1NC(=O)C1=CNC(=O)C[C@H]1c1ccc(F)cc1 [Compound 133, (S)-4-(4-Fluoro-phenyl)-6-oxo-1,4,5,6-tetrahydro-pyridine-3-carboxylic acid [2-methyl-5-(3-methyl-2,4-dioxo-3,4-dihydro-2H-pyrimidin-1-yl)-phenyl]-amide]"
16,6.42,"Cc1ccc(-c2ccc(=O)n(CCO)n2)cc1NC(=O)C1=CN(C)C(=O)C[C@H]1c1ccc(F)cc1 [Compound 134, (S)-4-(4-Fluoro-phenyl)-1-methyl-6-oxo-1,4,5,6-tetrahydro-pyridine-3-carboxylic acid {5-[1-(2-hydroxy-ethyl)-6-oxo-1,6-dihydro-pyridazin-3-yl]-2-methyl-phenyl}-amide]"
17,7.655,"Cc1cnn(-c2ccc(C)c(NC(=O)C3=CNC(=O)C[C@H]3c3ccc(F)cc3)c2)c(=O)c1 [Compound 135, (S)-4-(4-Fluoro-phenyl)-6-oxo-1,4,5,6-tetrahydro-pyridine-3-carboxylic acid [2-methyl-5-(4-methyl-6-oxo-6H-pyridazin-1-yl)-phenyl]-amide]"
18,7.515,"Cc1cnn(-c2ccc(C)c(NC(=O)C3=CN(C)C(=O)C[C@H]3c3ccc(F)cc3)c2)c(=O)c1 [Compound 136, (S)-4-(4-Fluoro-phenyl)-1-methyl-6-oxo-1,4,5,6-tetrahydro-pyridine-3-carboxylic acid [2-methyl-5-(4-methyl-6-oxo-6H-pyridazin-1-yl)-phenyl]-amide]"
19,6.39,"Cc1cc(-c2ccc(F)c(NC(=O)C3=CN(C)C(=O)C[C@H]3c3ccc(F)cc3)c2)n[nH]1 [Compound 137, (S)-4-(4-Fluoro-phenyl)-1-methyl-6-oxo-1,4,5,6-tetrahydro-pyridine-3-carboxylic acid [2-fluoro-5-(5-methyl-1H-pyrazin-3-yl)-phenyl]-amide]"
20,7.83,"Cc1cc(F)c(-c2cccn(C)c2=O)cc1NC(=O)C1=CN(C)C(=O)C[C@H]1c1ccc(F)cc1 [Compound 139, (S)-4-(4-Fluoro-phenyl)-1-methyl-6-oxo-1,4,5,6-tetrahydro-pyridine-3-carboxylic acid [4-fluoro-2-methyl-5-(1-methyl-2-oxo-1,2-dihydro-pyridin-3-yl)-phenyl]-amide]"
21,7.18,"Cc1ccc(=O)n(-c2ccc(C)c(NC(=O)C3=CN(C)C(=O)C[C@H]3c3ccc(F)cc3)c2)c1 [Compound 140, (S)-4-(4-Fluoro-phenyl)-1-methyl-6-oxo-1,4,5,6-tetrahydro-pyridine-3-carboxylic acid [2-methyl-5-(5-methyl-2-oxo-2H-pyridin-1-yl)-phenyl]-amide]"
22,7.36,"CN1C=C(C(=O)Nc2cc(-c3ccnn(C)c3=O)ccc2F)[C@H](c2ccc(F)cc2)CC1=O [Compound 141, (S)-4-(4-Fluoro-phenyl)-1-methyl-6-oxo-1,4,5,6-tetrahydro-pyridine-3-carboxylic acid [2-fluoro-5-(2-methyl-3-oxo-2,3-dihydro-pyridazin-4-yl)-phenyl]-amide]"
23,8.2,"Cn1nccc(-c2ccc(F)c(NC(=O)C3=CNC(=O)C[C@H]3c3ccc(F)cc3)c2)c1=O [Compound 142, (S)-4-(4-Fluoro-phenyl)-6-oxo-1,4,5,6-tetrahydro-pyridine-3-carboxylic acid [2-fluoro-5-(2-methyl-3-oxo-2,3-dihydro-pyridazin-4-yl)-phenyl]-amide]"
